Consider one compound from PMC8194506 (Antiviral research, 2020).

For this data set the following is noted: guinea pig, in vivo.

In the case of `CCN(CC)CCOc1ccc2c(c1)C(=O)c1cc(OCCN(CC)CC)ccc1-2` [Tilorone], the well tolerated dose is reported as not above 60 mg/kg.
